# What was measured:
# Format in all cases: biochemical
# SRC = SRC (Homo sapiens, UniProt P12931); assay: Inhibition of a panel of kinases, in vitro HotSpot kinase assay: SRC; conditions: D-compounds panel data; 1 μM ATP
# Experimental: (§1) The degree of inhibition of a panel of kinases is determined using the in vitro HotSpot kinase assay (purified enzymes, ^33P-ATP, an appropriate substrate and 1 μM ATP).
# LCK = LCK (Homo sapiens, UniProt P06239); assay: Inhibition of a panel of kinases, in vitro HotSpot kinase assay: LCK; conditions: D-compounds panel data; 1 μM ATP; read-out: IC50 LCK
# JAK3 = target: T1, JAK3 (Homo sapiens, UniProt P52333); assay: Inhibition of a panel of kinases, in vitro HotSpot kinase assay: JAK3; conditions: D-compounds panel data; 1 μM ATP; read-out: IC50 JAK3
# T1 sequence (P52333 1-1124): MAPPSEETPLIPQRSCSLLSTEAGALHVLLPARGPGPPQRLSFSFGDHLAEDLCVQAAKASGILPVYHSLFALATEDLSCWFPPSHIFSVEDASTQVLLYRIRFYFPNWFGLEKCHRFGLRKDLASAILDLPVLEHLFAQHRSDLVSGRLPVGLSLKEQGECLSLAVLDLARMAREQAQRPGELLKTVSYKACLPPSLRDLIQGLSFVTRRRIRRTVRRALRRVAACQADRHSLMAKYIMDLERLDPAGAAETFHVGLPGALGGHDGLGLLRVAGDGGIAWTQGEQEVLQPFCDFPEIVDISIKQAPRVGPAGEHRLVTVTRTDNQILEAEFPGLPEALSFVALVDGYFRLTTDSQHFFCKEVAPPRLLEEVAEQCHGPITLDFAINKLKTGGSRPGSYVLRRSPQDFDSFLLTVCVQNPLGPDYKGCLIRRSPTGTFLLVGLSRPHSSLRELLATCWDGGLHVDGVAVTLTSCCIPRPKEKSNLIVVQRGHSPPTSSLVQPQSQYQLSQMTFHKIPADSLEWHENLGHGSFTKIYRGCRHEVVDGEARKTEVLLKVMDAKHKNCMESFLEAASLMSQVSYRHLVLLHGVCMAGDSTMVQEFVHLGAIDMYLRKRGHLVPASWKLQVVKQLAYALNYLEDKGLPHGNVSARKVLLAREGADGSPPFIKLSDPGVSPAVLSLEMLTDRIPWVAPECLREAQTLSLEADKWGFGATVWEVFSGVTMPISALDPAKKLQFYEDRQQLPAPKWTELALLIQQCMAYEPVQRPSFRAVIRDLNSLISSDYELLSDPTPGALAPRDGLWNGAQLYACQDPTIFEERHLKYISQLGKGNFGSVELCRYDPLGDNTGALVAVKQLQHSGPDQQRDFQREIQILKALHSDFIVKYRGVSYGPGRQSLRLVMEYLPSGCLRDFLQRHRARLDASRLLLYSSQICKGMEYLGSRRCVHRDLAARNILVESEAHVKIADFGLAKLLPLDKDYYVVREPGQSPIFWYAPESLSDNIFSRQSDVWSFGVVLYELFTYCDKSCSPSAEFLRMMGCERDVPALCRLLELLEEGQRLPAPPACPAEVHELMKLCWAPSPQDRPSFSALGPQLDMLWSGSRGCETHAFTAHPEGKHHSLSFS
# TEC = target: T2, TEC (Homo sapiens, UniProt P42680); assay: Inhibition of a panel of kinases, in vitro HotSpot kinase assay: TEC; conditions: D-compounds panel data; 1 μM ATP
# T2 sequence (P42680 1-631): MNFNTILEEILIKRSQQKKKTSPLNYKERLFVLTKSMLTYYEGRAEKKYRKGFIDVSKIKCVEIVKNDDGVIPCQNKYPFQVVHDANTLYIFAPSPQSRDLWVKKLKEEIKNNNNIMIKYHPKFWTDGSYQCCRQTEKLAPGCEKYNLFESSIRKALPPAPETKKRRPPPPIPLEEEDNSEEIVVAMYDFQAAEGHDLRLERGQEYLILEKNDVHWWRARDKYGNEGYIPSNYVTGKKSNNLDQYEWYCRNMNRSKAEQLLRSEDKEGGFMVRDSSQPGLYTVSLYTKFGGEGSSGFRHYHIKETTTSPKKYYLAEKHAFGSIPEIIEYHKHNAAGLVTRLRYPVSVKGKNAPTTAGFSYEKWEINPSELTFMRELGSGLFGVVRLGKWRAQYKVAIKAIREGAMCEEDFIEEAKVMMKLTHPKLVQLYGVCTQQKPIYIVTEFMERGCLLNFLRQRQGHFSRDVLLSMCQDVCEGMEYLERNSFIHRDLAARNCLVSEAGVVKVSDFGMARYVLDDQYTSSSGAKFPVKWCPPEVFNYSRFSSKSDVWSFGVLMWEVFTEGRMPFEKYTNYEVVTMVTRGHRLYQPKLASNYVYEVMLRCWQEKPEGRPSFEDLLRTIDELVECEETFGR
# Experimental: as §1
# ITK = target: T3, ITK (Homo sapiens, UniProt Q08881); assay: Inhibition of a panel of kinases, in vitro HotSpot kinase assay: ITK; conditions: D-compounds panel data; 1 μM ATP
# T3 sequence (Q08881 1-620): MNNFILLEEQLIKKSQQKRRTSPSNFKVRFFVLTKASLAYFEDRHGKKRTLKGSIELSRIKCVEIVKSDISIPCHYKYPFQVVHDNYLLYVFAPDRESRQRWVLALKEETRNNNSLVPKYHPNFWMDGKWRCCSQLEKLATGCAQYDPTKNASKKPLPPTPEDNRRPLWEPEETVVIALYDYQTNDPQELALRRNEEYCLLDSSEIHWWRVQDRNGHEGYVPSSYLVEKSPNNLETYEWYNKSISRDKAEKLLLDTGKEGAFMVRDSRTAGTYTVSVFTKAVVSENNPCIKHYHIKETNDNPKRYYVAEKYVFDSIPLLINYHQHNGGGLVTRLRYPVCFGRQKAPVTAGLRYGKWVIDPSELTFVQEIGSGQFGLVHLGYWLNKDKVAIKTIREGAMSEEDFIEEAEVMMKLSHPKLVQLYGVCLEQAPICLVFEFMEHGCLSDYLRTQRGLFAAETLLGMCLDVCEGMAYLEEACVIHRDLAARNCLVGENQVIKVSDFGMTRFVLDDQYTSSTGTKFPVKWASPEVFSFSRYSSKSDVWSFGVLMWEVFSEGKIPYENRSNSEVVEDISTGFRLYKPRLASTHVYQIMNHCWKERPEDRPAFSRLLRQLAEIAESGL
# Experimental: as §1
# EGFR = EGFR (Homo sapiens, UniProt P00533); assay: Inhibition of a panel of kinases, in vitro HotSpot kinase assay: EGFR; conditions: D-compounds panel data; 1 μM ATP
# Experimental: as §1
# Sequence of SRC (P12931 whole entry): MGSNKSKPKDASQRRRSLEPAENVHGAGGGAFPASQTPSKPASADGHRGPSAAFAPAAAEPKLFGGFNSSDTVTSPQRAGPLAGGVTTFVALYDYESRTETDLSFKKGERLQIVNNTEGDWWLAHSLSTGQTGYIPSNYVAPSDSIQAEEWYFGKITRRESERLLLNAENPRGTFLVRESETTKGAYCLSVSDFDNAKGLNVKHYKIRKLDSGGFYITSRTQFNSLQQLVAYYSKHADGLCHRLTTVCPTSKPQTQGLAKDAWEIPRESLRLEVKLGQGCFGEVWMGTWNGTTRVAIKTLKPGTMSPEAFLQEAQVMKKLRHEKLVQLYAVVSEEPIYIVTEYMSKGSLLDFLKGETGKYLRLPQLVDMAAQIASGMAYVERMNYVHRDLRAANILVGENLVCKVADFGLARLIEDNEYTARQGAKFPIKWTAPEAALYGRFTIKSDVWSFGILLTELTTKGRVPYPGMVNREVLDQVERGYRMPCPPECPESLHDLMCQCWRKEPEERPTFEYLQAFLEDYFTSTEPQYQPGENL
# Sequence of EGFR (P00533 25-1210): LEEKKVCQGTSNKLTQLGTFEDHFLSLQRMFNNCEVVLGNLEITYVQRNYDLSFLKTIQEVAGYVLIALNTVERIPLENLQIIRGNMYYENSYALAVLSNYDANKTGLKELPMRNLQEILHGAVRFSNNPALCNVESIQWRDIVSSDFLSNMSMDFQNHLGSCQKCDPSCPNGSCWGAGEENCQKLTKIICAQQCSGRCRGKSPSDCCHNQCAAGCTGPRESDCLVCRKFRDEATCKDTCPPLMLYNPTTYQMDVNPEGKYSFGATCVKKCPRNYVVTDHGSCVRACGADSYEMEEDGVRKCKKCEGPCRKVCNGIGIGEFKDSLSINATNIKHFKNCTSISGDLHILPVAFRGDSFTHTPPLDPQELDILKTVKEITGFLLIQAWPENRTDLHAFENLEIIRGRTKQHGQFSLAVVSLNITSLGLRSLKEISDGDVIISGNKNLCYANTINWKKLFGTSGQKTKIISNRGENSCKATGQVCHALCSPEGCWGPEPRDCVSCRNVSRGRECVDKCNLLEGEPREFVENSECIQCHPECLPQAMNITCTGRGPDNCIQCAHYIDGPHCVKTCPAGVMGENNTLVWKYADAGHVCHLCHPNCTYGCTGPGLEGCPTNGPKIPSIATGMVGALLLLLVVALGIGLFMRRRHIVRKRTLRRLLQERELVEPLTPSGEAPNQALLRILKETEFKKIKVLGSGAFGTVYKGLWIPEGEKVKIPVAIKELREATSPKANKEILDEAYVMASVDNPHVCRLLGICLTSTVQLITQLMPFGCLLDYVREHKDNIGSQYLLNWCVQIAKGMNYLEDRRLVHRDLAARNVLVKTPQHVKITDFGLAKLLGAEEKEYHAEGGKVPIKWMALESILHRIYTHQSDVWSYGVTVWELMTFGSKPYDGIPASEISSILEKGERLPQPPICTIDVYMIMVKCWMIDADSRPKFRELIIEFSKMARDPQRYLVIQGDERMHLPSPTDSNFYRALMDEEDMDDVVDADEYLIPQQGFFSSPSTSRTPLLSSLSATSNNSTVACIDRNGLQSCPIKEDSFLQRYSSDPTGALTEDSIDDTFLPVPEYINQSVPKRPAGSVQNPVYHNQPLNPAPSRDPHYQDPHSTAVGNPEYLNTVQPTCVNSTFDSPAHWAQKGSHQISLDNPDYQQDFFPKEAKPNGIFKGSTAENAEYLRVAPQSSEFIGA
# Sequence of LCK (P06239 whole entry): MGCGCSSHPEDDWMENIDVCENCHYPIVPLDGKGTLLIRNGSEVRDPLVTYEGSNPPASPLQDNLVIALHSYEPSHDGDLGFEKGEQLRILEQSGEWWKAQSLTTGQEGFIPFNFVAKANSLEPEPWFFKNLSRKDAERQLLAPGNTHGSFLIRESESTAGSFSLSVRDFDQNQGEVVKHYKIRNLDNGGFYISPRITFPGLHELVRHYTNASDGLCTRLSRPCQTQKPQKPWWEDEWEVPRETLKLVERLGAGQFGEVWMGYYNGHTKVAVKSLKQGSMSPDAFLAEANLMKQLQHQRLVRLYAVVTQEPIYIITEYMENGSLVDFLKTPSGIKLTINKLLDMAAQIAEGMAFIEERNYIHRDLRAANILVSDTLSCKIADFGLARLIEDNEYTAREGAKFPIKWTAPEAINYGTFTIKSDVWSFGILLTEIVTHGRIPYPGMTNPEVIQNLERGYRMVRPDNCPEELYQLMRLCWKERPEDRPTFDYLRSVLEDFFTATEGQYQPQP
SMILES,IC50 (SRC),IC50 (LCK),IC50 (JAK3),IC50 (TEC),IC50 (ITK),IC50 (EGFR)
"C[C@@H]1[C@H](NC(=O)c2ccc(C(C)(C)C)cc2F)CCCN1c1cnc(C(N)=O)c(Nc2cnn(C)c2)n1 [Example D-223, 5-[(2R,3R)-3-(4-tert-butyl-2-fluorobenzamido)-2-methylpiperidin-1-yl]-3-[(1-methyl-1H-pyrazol-4-yl)amino]pyrazine-2-carboxamide]",100 to 1000 nM,100 to 1000 nM,> 10000 nM,10 to 100 nM,1000 to 10000 nM,1000 to 10000 nM
"C[C@@H]1[C@H](NC(=O)c2ccc3c(c2)OCCO3)CCCN1c1cnc(C(N)=O)c(Nc2cnn(C)c2)n1 [Example D-224, 5-[(2R,3R)-3-(2,3-dihydro-1,4-benzodioxine-6-amido)-2-methylpiperidin-1-yl]-3-[(1-methyl-1H-pyrazol-4-yl)amino]pyrazine-2-carboxamide]",10 to 100 nM,100 to 1000 nM,1000 to 10000 nM,≤ 10 nM,100 to 1000 nM,100 to 1000 nM
"Cn1cc(Nc2nc(N3CCC[C@@H](n4ccc5cc(C6CC6)ncc5c4=O)C3)cnc2C(N)=O)cn1 [Example D-225, 5-[(3R)-3-(6-cyclopropyl-1-oxo-1,2-dihydro-2,7-naphthyridin-2-yl)piperidin-1-yl]-3-[(1-methyl-1H-pyrazol-4-yl)amino]pyrazine-2-carboxamide]",10 to 100 nM,100 to 1000 nM,100 to 1000 nM,≤ 10 nM,100 to 1000 nM,1000 to 10000 nM
"C[C@@H]1[C@H](NC(=O)c2ccc3scnc3c2)CCCN1c1cnc(C(N)=O)c(Nc2ccc(N3CCN(C)CC3)cc2)n1 [Example D-226, N-[(2R,3R)-1-(5-carbamoyl-6-{[4-(4-methylpiperazin-1-yl)phenyl]amino}pyrazin-2-yl)-2-methylpiperidin-3-yl]-1,3-benzothiazole-5-carboxamide]",≤ 10 nM,10 to 100 nM,100 to 1000 nM,≤ 10 nM,10 to 100 nM,100 to 1000 nM
"C[C@@H]1[C@H](NC(=O)c2ccc(S(C)(=O)=O)cc2)CCCN1c1cnc(C(N)=O)c(Nc2ccc(N3CCN(C)CC3)cc2)n1 [Example D-227, 5-[(2R,3R)-3-(4-methanesulfonylbenzamido)-2-methylpiperidin-1-yl]-3-{[4-(4-methylpiperazin-1-yl)phenyl]amino}pyrazine-2-carboxamide]",≤ 10 nM,10 to 100 nM,100 to 1000 nM,≤ 10 nM,10 to 100 nM,100 to 1000 nM
"C[C@@H]1[C@H](NC(=O)c2ccc(C3(C)COC3)cc2)CCCN1c1cnc(C(N)=O)c(Nc2cnn(C)c2)n1 [Example D-228, 3-[(1-methyl-1H-pyrazol-4-yl)amino]-5-[(2R,3R)-2-methyl-3-[4-(3-methyloxetan-3-yl)benzamido]piperidin-1-yl]pyrazine-2-carboxamide]",10 to 100 nM,100 to 1000 nM,1000 to 10000 nM,≤ 10 nM,100 to 1000 nM,1000 to 10000 nM
"C[C@@H]1[C@H](NC(=O)c2ccc(C(C)(C)C)s2)CCCN1c1cnc(C(N)=O)c(Nc2cnn(C)c2)n1 [Example D-229, 5-[(2R,3R)-3-(5-tert-butylthiophene-2-amido)-2-methylpiperidin-1-yl]-3-[(1-methyl-1H-pyrazol-4-yl)amino]pyrazine-2-carboxamide]",100 to 1000 nM,10 to 100 nM,> 10000 nM,10 to 100 nM,1000 to 10000 nM,1000 to 10000 nM
"C[C@@H]1[C@H](NC(=O)c2ccc(S(F)(F)(F)(F)F)cc2)CCCN1c1cnc(C(N)=O)c(Nc2cnn(C)c2)n1 [Example D-230, 3-[(1-methyl-1H-pyrazol-4-yl)amino]-5-[(2R,3R)-2-methyl-3-[4-(pentafluoro-λ^6-sulfanyl)benzamido]piperidin-1-yl]pyrazine-2-carboxamide]",100 to 1000 nM,100 to 1000 nM,> 10000 nM,10 to 100 nM,1000 to 10000 nM,1000 to 10000 nM
"COc1cc(C(=O)N[C@@H]2CCCN(c3cnc(C(N)=O)c(Nc4cnn(C)c4)n3)[C@@H]2C)ccc1C1CC1 [Example D-231, 5-[(2R,3R)-3-(4-cyclopropyl-3-methoxybenzamido)-2-methylpiperidin-1-yl]-3-[(1-methyl-1H-pyrazol-4-yl)amino]pyrazine-2-carboxamide]",10 to 100 nM,100 to 1000 nM,> 10000 nM,10 to 100 nM,100 to 1000 nM,1000 to 10000 nM
"Cc1ccc(C(=O)N[C@@H]2CCCN(c3cnc(C(N)=O)c(Nc4cnn(C)c4)n3)[C@@H]2C)cc1 [Example D-232, 3-[(1-methyl-1H-pyrazol-4-yl)amino]-5-[(2R,3R)-2-methyl-3-(4-methylbenzamido)piperidin-1-yl]pyrazine-2-carboxamide]",10 to 100 nM,10 to 100 nM,1000 to 10000 nM,≤ 10 nM,100 to 1000 nM,1000 to 10000 nM
"C[C@@H]1[C@H](NC(=O)c2ccc(SC(F)(F)F)cc2)CCCN1c1cnc(C(N)=O)c(Nc2ccc(N3CCN(C)CC3)cc2)n1 [Example D-233, 5-[(2R,3R)-2-methyl-3-{4-[(trifluoromethyl)sulfanyl]benzamido}piperidin-1-yl]-3-{[4-(4-methylpiperazin-1-yl)phenyl]amino}pyrazine-2-carboxamide]",10 to 100 nM,100 to 1000 nM,1000 to 10000 nM,10 to 100 nM,100 to 1000 nM,100 to 1000 nM
"C[C@@H]1[C@H](NC(=O)c2ccc3c(cnn3C)c2)CCCN1c1cnc(C(N)=O)c(Nc2ccc(N3CCN(C)CC3)cc2)n1 [Example D-234, N-[(2R,3R)-1-(5-carbamoyl-6-{[4-(4-methylpiperazin-1-yl)phenyl]amino}pyrazin-2-yl)-2-methylpiperidin-3-yl]-1-methyl-1H-indazole-5-carboxamide]",10 to 100 nM,10 to 100 nM,100 to 1000 nM,≤ 10 nM,10 to 100 nM,100 to 1000 nM

# From patent publication US20210070748A1, “INHIBITORS OF BRUTONS TYROSINE KINASE” (Pharmacyclics LLC, priority 2015, published 2021)
